{"source": "patent US9944583B2", "about": "“Methods for ameliorating and preventing central nervous system inflammation” (THE REGENTS OF THE UNIVERSITY OF CALIFORNIA, priority 2007, dated 2018)", "key": {"NADPH oxidase (Nox)": {"tested_on": "NADPH oxidase (Nox)", "test": "Nox activity in synaptosomes by NADPH-dependent oxygen consumption (oximetry)", "type": "biochemical, mouse", "method": "Synaptosomal preparations. […] Mice were euthanized by exposure to a lethal dose of inhaled halothane, followed by cervical dislocation. Brains were rapidly removed, cortices dissected and homogenized in 10 volumes of ice-cold isolation buffer (0.32M sucrose, 1 mM EDTA, 10 mM Tris-HCl buffer, pH 7.4, 10 mM glucose). The homogenate was centrifuged at 3100 rpm for 3 min at 4° C., and the supernatant collected, and the pellet was re-homogenized in half the volume of isolation buffer and centrifuged again. Synaptosomal were then isolated as described (see reference 30, below) modified as follows, the pooled supernatants were mixed with PERCOLL™ (Sigma, St. Louis, Mo.) to a final concentration of 15%, and then layered onto a step gradient of 23% and 40% PERCOLL™, and centrifuged at 16,000 rpm for 5 minutes at 4° C. The uppermost band was extracted, rinsed in isolation buffer, centrifuged and resuspended in synaptosomal buffer (120 mM NaCl, 4.7 mM KCl, 2.2 mM CaCl2, 1.2 mM MgCl2, 25 mM HEPES, 1.2 mM MgSO4, 1.2 mM KH2PO4, 10 mM glucose).\nOxygen consumption studies (oximetry). O2 consumption studies on synaptosomes are carried out. […] Studies were carried out to optimize the concentration of synaptosomal protein required, and to confirm stability and viability of synaptosomes and their mitochondria for up to 6 h."}, "[1]": {"tested_on": "PV-interneurons in mouse prefrontal cortex", "test": "two-day ketamine treatment of mice: oxidized DHE, parvalbumin and GAD67 in prefrontal cortex", "type": "in vivo", "method": "Animals and treatments. […] Male C57BL6 mice were obtained from Jackson Labs, Bar Harbor, Me., at 8-12 weeks and housed in our facility until 15 weeks when they were used for experiments. Ketamine (30 mg/kg) was applied intraperitoneally (IP) on two consecutive days at around 4 pm. DHE was applied 30 min after the last ketamine injection as described (19, 20). Briefly, two serial i.p. injections of freshly prepared dihydroethidium (27 mg/kg) are given at 30 minute intervals. Eighteen hours later, mice are anesthetized with inhaled halothane, and perfused intracardially with cold saline followed by 4% paraformaldehyde in PBS. The Nox inhibitor, apocynin (5 mg/kg/day) was given in the drinking water for a total of seven days, with an assumed intake of […] H2O/mouse/day, and ketamine was applied on the last two days. […] All animal studies were approved by the Animal Care Program at the University of California, San Diego, and are in accordance the PHS Guide for the Care and Use of Laboratory Animals, USDA Regulations, and the AVMA Panel on Euthanasia.\nImmunohistochemistry: Brains were frontally sliced in a vibratome into 50 μm coronal sections encompassing the prefrontal cortex region (from Bregma 2.0 to 1.3). Sequential slices were processed for floating-section double immunohistochemistry for the detection of parvalbumin and GAD67. Antigen retrieval was performed by incubation of the slices in 1% sodium borohydride for 15 min as described (see reference 34, below), followed by washing in PBS and incubation in 10% normal goat serum in PBS for 16 h at 4° C. Primary antibodies (Calbindin: 1:5000: Calretinin: 1:2000; Parvalbumin: 1:3000, all rabbit polyclonals from Swant, Bellinzona, Switzerland. GAD67: 1:1000, from Chemicon-Millipore, Temecula, Calif.) were diluted in 2% normal goat serum in PBS and applied to the slices for 18 h at 4° C., after which slices were washed in PBS and incubated in a 1:1000 dilution of ALEXAFLUOR™ (Molecular Probes, Invitrogen, Carlsbad, Calif.) conjugated goat anti-rabbit (568) or goat anti-mouse (488) antibodies for 1 hr at room temperature (rt). Slices were washed in PBS and mounted sequentially in glass slides using […]™ (Vector Laboratories, Burlingame, Calif.), covered with a coverslip and allowed to dry for at least 24 h before confocal imaging.\nSix slices were analyzed per animal.\nAnalysis of superoxide and/or hydrogen peroxide production by confocal imaging of in vivo dihydroethidium (DHE) oxidation. Mice will be injected intraperitoneally (i.p.) with dihydroethidium."}, "[2]": {"tested_on": "pyramidal layer of CA1 in the aged hippocampus", "test": "in vivo superoxide production in CA1 of the aged hippocampus (DHE confocal imaging)", "design": "species or system mouse", "conditions": "old mice; C3 by oral administration; apocynin", "method": "Analysis of superoxide and/or hydrogen peroxide production by confocal imaging of in vivo dihydroethidium (DHE) oxidation. Mice will be injected intraperitoneally (i.p.) with dihydroethidium. Briefly, two serial i.p. injections of freshly prepared dihydroethidium (27 mg/kg) are given at 30 minute intervals. Eighteen hours later, mice are anesthetized with inhaled halothane, and are perfused intracardially with cold saline followed by 4% paraformaldehyde in PBS. Brains are removed and post-fixed in 2% paraformaldehyde for >24 h. Following fixation, brains are cut into 50 μm coronal sections and co-labeled with the appropriate primary and secondary antibodies for fluorescence visualization. […] First, an image is taken in the fluorescence channel of the ICC-fluorophor and then the channel is switched to image fluorescence from DHE oxidation. […] Using the image pairs for each field and MetaMorph software, an analyst blind to the group circles the outline of each ICC-labeled cell and then switches to the DHE oxidation image. The average fluorescence intensity for each cell of interest is logged, and values averaged to determine the mean fluorescence/cell."}, "[3]": {"tested_on": "synaptosomal mitochondria", "test": "respiration of synaptosomal mitochondria (oximetry)", "conditions": "apocynin 0-200 μM in synaptosomes"}, "[4]": {"conditions": "apocynin 5 mg/kg/day 1 week in drinking water, C3 1.0 mg/kg/day one month by mini-pumps"}}}
{"molecule": "COc1cc(C(C)=O)ccc1O", "note": "[apocynin, 4-hydroxy-3-methoxyacetophenone]", "values": [{"measurement": "block of NADPH-induced O2 consumption", "setting": "NADPH oxidase (Nox); 200 μM apocynin, synaptosomes, 5 mM NADPH", "value": "> 90", "unit": "%"}, {"measurement": "effect on increased Nox activity in synaptosomes from ketamine treated animals", "setting": "NADPH oxidase (Nox); apocynin added in vitro", "value": "inhibited"}, {"measurement": "effect on ketamine-induced increase in oxidized DHE in vivo", "setting": "[1]; [4]", "value": "prevented"}, {"measurement": "effect on ketamine-mediated loss of parvalbumin immunoreactivity in PV-interneurons in vivo", "setting": "[1]; [4]", "value": "completely prevented"}, {"measurement": "effect on ketamine-mediated decrease in parvalbumin and GAD67 immunoreactivity in PFC", "setting": "[1]; apocynin in the drinking water", "value": "prevented"}, {"measurement": "effect on elevated levels of superoxide in the pyramidal layer of CA1 in the aged hippocampus", "setting": "[2]", "value": "prevented"}, {"measurement": "mitochondrial respiration", "setting": "[3]", "value": "did not affect"}]}
